Assay results reported in the Biogen ADME set (Fang et al. 2023).
Converted amounts (≈) assume the structure as drawn.

Settings: for aqueous solubility: pH 6.8

| SMILES | intrinsic clearance, human liver microsomes | intrinsic clearance, rat liver microsomes | MDR1-MDCK efflux ratio | aqueous solubility | fraction unbound, human plasma | fraction unbound, rat plasma |
| --- | --- | --- | --- | --- | --- | --- |
| N#Cc1ccccc1CN1C(=O)CCC1=O | ≤ 4.74 mL/min/kg | 20.4 mL/min/kg |  |  |  |  |
| CC(=O)NCc1cc2n(n1)CCN(C1Cc3ccccc3C1)C2 | ≤ 4.74 mL/min/kg | ≤ 10.7 mL/min/kg | 1.12 |  |  |  |
| CCN(CC)CC(=O)Nc1ccc(Oc2ccc(C)nn2)cc1 | ≤ 4.74 mL/min/kg | 31.6 mL/min/kg | 1.62 |  |  |  |
| Cc1cc(C(=O)N(C)c2nc3ccccc3s2)cc(O)n1 | ≤ 4.74 mL/min/kg | 16.1 mL/min/kg | 4 |  |  |  |
| Cc1cc(N)n(-c2ncnc3sc(C)c(-c4ccc(Cl)cc4)c23)n1 | 94.2 mL/min/kg | 670 mL/min/kg | 0.712 | 6.32 µg/mL (≈ 17.8 µM) |  |  |
| COc1ccc(-c2ccc(Cn3nc(C)cc3C)cn2)cc1 | 23.7 mL/min/kg | 255 mL/min/kg | 0.479 |  |  |  |
| Cc1ccc(-c2noc(CCC(=O)N3CCCC3(C)C)n2)cc1F | 228 mL/min/kg | 3380 mL/min/kg | 0.535 | 40.8 µg/mL (≈ 123 µM) |  |  |
| COc1cc(C)nc(N2CCN(c3ccc4ccccc4n3)CC2)n1 | 36.2 mL/min/kg | 643 mL/min/kg |  |  |  |  |
| CCc1c(C)nn(CCNC(=O)CCc2cnccn2)c1C | 64.5 mL/min/kg | 647 mL/min/kg | 23.4 |  |  |  |
| CCn1nccc1-c1cc(CC2CCNCC2)ncn1 | ≤ 4.74 mL/min/kg | ≤ 10.7 mL/min/kg | 54.7 | 37.3 µg/mL (≈ 137 µM) |  |  |
| OCCOc1ccccc1OCc1ncc(Cl)cc1Cl | 48.5 mL/min/kg | 319 mL/min/kg | 0.551 |  |  |  |
| CCCc1cc(C)nc(O)c1CNC(=O)c1cc(-c2ccc(N3CCN(C(C)C)CC3)nc2)cc2c1cnn2C(C)C | 120 mL/min/kg | 235 mL/min/kg | 122 |  |  |  |
| Fc1ccccc1CN1CCN(c2ncccn2)CC1 | 84.7 mL/min/kg | 800 mL/min/kg | 0.717 | 36.2 µg/mL (≈ 133 µM) |  |  |
| O=C(Nc1ccc2ccccc2n1)c1ccc(N2CCOC2=O)cc1 | 5.17 mL/min/kg | 45.6 mL/min/kg | 0.594 | 2.85 µg/mL (≈ 8.55 µM) | 0.0281 | 0.0117 |
| CNCc1cc(N(C)C)nc(C2CCCN2C(=O)COc2ccc(F)cc2)n1 (centres undefined) | ≤ 4.74 mL/min/kg | 244 mL/min/kg | 46.7 |  |  |  |
| CN(C)[C@@H]1CN(C(=O)CCn2cnc3ccccc32)C[C@H]1O | 5.49 mL/min/kg | 30.7 mL/min/kg | 1.66 | 151 µg/mL (≈ 500 µM) |  |  |
| O=C(NC1CC1)c1cccc2cccnc12 | 5.23 mL/min/kg | 31.3 mL/min/kg | 0.708 | 33.8 µg/mL (≈ 159 µM) |  |  |
| C#CCNC(=O)c1ccc(OC)c(OC)c1 |  |  |  | 26.9 µg/mL (≈ 123 µM) |  |  |
| CC(C)Cn1c(=O)[nH]c(=O)c2c1nc1n2CCCCC1 | 7.18 mL/min/kg | 28.2 mL/min/kg | 3.54 | 62.7 µg/mL (≈ 227 µM) |  |  |
| N#Cc1cccc(NCc2ccc(-c3cccnc3)o2)c1 | 91.5 mL/min/kg | 416 mL/min/kg |  |  |  |  |

| SMILES | intrinsic clearance, human liver microsomes | intrinsic clearance, rat liver microsomes | MDR1-MDCK efflux ratio | aqueous solubility | fraction unbound, human plasma | fraction unbound, rat plasma |
| --- | --- | --- | --- | --- | --- | --- |
| O=C(/C=C\n1cnc(-c2cc(C(F)(F)F)cc(C(F)(F)F)c2)n1)NNc1cnccn1 | 4.77 mL/min/kg | 14.3 mL/min/kg | 1.96 | 12.5 µg/mL (≈ 28.1 µM) |  |  |
| Fc1ccc(-n2nc(C3CCOCC3)nc2-c2cn[nH]c2)c(F)c1 | ≤ 4.74 mL/min/kg | 62.7 mL/min/kg | 19.6 | 25.9 µg/mL (≈ 78.1 µM) |  |  |
| CCC(Nc1cnn(C)c1)c1ccc2c(c1)OCCO2 (centres undefined) | 11.4 mL/min/kg | 332 mL/min/kg | 0.835 | 37.7 µg/mL (≈ 138 µM) |  |  |
| O=C(NCc1nncn1-c1ccccc1)C1CCCC1 | ≤ 4.74 mL/min/kg | 12.2 mL/min/kg | 20.8 | 43.3 µg/mL (≈ 160 µM) |  |  |
| O=C(CCc1cn[nH]c1)NCCCn1cc(Cl)cn1 | ≤ 4.74 mL/min/kg | 27.9 mL/min/kg | 18.1 |  |  |  |
| Cc1nccn1CCCN1C(=O)SC(C)(C)C1=O | ≤ 4.74 mL/min/kg | 83 mL/min/kg | 2.51 | 29.2 µg/mL (≈ 109 µM) |  |  |
| CC[C@@H]1CN(c2ccc(C(=O)Nc3cn4cc(C)nc4cn3)c(F)c2)CCN1 |  |  | 2.39 |  |  |  |
| Cc1cccn(Cc2cccc(C#N)c2)c1=O | ≤ 4.74 mL/min/kg | 28.8 mL/min/kg | 0.69 | 30.9 µg/mL (≈ 138 µM) |  |  |
| Cc1cc(C(=O)NCC2(c3ccccc3)CC2)on1 | ≤ 4.74 mL/min/kg | 109 mL/min/kg |  | 40.1 µg/mL (≈ 157 µM) |  |  |
| O=C(COC(=O)c1cc(O)nc2ccccc12)c1ccc(Oc2c(Cl)cccc2[N+](=O)[O-])cc1 | 986 mL/min/kg | 184 mL/min/kg |  |  |  |  |
| COc1ccc(OC)c(N/C=C2\C(=O)Oc3ccccc3C2=O)c1 |  |  |  | 0.7 µg/mL (≈ 2.15 µM) |  |  |
| Cc1nc(NCc2scnc2C)n(C)n1 | ≤ 4.74 mL/min/kg | ≤ 10.7 mL/min/kg | 4.21 | 27.7 µg/mL (≈ 124 µM) |  |  |
| CC(C(=O)Nc1ccccc1)N1CCCC(c2nc3ccccc3o2)C1 (centres undefined) |  | 3000 mL/min/kg | 0.831 | 26.9 µg/mL (≈ 76.8 µM) |  |  |
| O=C(CN1CCCN(c2nccs2)CC1)Nc1cccc(Cl)c1 | 442 mL/min/kg | 1950 mL/min/kg | 0.851 | 37.1 µg/mL (≈ 106 µM) |  |  |
| Cc1csc(CN(C)c2ccnc(N(C)C)n2)n1 | 11.8 mL/min/kg | 546 mL/min/kg | 0.578 | 45.8 µg/mL (≈ 174 µM) |  |  |
| CC(C)NC(=O)CN(C)c1ccc(Cl)c(C#N)n1 | ≤ 4.74 mL/min/kg | 87.1 mL/min/kg |  |  |  |  |
| O=C(O)CCn1c2ccccc2c2ccccc21 | ≤ 4.74 mL/min/kg | 11.4 mL/min/kg | 0.809 | 52 µg/mL (≈ 217 µM) |  |  |
| CNC(=O)[C@H]1O[C@@H](n2cnc3c(NCc4cccc(I)c4)ncnc32)[C@H](O)[C@@H]1O | 195 mL/min/kg | 3690 mL/min/kg |  |  |  |  |
| COc1ccccc1C(=O)NCc1nc(C)cc(N2CCCCC2)n1 | 96.3 mL/min/kg | 1050 mL/min/kg | 0.243 | 67 µg/mL (≈ 197 µM) |  |  |
| Cc1cnc(-c2nc(NCc3ccccn3)ncc2-c2onc(C)c2C)cn1 | 116 mL/min/kg | 1040 mL/min/kg | 10.7 | 59 µg/mL (≈ 158 µM) |  |  |

| SMILES | intrinsic clearance, human liver microsomes | intrinsic clearance, rat liver microsomes | MDR1-MDCK efflux ratio | aqueous solubility | fraction unbound, human plasma | fraction unbound, rat plasma |
| --- | --- | --- | --- | --- | --- | --- |
| C#CCNC(=O)c1cc(C(C)C)nn1CC | ≤ 4.74 mL/min/kg | 12.4 mL/min/kg | 0.855 | 28.4 µg/mL (≈ 130 µM) |  |  |
| CCN(Cc1nc2cc(Cl)ccc2c(=O)[nH]1)C(=O)COc1ccccc1Cc1ccccc1 | 225 mL/min/kg | 1470 mL/min/kg |  | 1.22 µg/mL (≈ 2.64 µM) |  |  |
| O=C1NCCSc2c1sc1ccc(O)cc21 | 48.8 mL/min/kg | 95.1 mL/min/kg |  |  | 0.0779 | 0.146 |
| COc1ccc(C2(NCc3cccc4ncccc34)CC2)cc1 | 261 mL/min/kg | 1340 mL/min/kg | 0.483 | 55.5 µg/mL (≈ 182 µM) |  |  |
| CC(C)COc1ccc(C(C)(C)NCc2nnc(C3CCC3)o2)cc1 | 127 mL/min/kg | 3070 mL/min/kg |  |  |  |  |
| O=C(NCc1nnc2c(O)nccn12)C1CCCC1 | ≤ 4.74 mL/min/kg | ≤ 10.7 mL/min/kg | 1.22 | 41.8 µg/mL (≈ 160 µM) |  |  |
| CCCC(=O)Nc1ccc(C)c2ncccc12 | 8.73 mL/min/kg | 28.1 mL/min/kg | 0.743 | 50.2 µg/mL (≈ 220 µM) |  |  |
| Cc1cc(C(=O)Nc2ccc(C)c(C)c2)n(-c2ccccc2)n1 | 97 mL/min/kg | 2050 mL/min/kg | 0.392 | 3.93 µg/mL (≈ 12.9 µM) |  |  |
| CC(=O)n1c(/C=C2/N=C(c3ccc(F)cc3)OC2=O)cc2ccccc21 | 109 mL/min/kg | 144 mL/min/kg |  | 5.43 µg/mL (≈ 15.6 µM) |  |  |
| O=C(NCc1ncc(-c2ccccc2)o1)C1CCCCC1 | 41.9 mL/min/kg | 668 mL/min/kg | 0.57 | 75.9 µg/mL (≈ 267 µM) |  |  |
| CCC1(O)CN(c2ncccc2C#N)C1 | ≤ 4.74 mL/min/kg | 25 mL/min/kg | 0.523 | 22.7 µg/mL (≈ 112 µM) |  |  |
| Cc1ccc(CNC(=O)CN2CCC(n3nnc4cc(C)ccc43)CC2)cc1 | 155 mL/min/kg | 1510 mL/min/kg | 3.73 | 30.2 µg/mL (≈ 79.9 µM) |  |  |
| Cc1nnc(-c2ccccc2NCc2ccsc2)o1 |  |  | 0.204 | 0.93 µg/mL (≈ 3.43 µM) |  |  |
| COc1ccccc1NC(=O)CSc1nc(C(C)(C)C)nc2ccccc12 |  |  | 1.26 | 0.27 µg/mL (≈ 0.708 µM) |  |  |
| Cc1cc(C(=O)N(C)Cc2ccc(Br)cc2)no1 | 92.8 mL/min/kg | 941 mL/min/kg | 0.69 | 64 µg/mL (≈ 207 µM) |  |  |
| Cc1ccc(-c2cn(CC3CCN(Cc4c[nH]c(C)n4)CC3)nn2)cc1 | ≤ 4.74 mL/min/kg | 32.4 mL/min/kg | 23.3 | 25 µg/mL (≈ 71.3 µM) |  |  |
| NCC(=O)Nc1ccc2[nH]c(=O)[nH]c2c1 |  |  |  | 104 µg/mL (≈ 506 µM) |  |  |
| O=C(C1CC1)N1CC[C@@H](Cc2n[nH]c(=O)n2-c2ccc(-c3ccc4occc4c3)cc2)C1 | 20.4 mL/min/kg | 101 mL/min/kg | 61.1 | 40.1 µg/mL (≈ 93.6 µM) |  |  |
| N#Cc1ccc(C(=O)Nn2cnnc2)cc1 | ≤ 4.74 mL/min/kg | ≤ 10.7 mL/min/kg |  | 18 µg/mL (≈ 84.3 µM) |  |  |
